# Assay results from patent US10150793B2, “Antagonists of CB1 receptor” (INSERM (Institut National de la Santé et de la Recherche …, priority 2011, dated 2018).
# What was measured:
# CHO cells = assay: Study of metabolism in vitro in CHO cells, steroids in culture medium by GC/MS
# How it was run: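 CHO-K1 cells were seeded at 25×10^4 cells/well in antibiotic-free DMEM-Glutamax with 10% FBS to assess metabolism of pregnenolone derivatives. Pregnenolone, allopregnanolone, epiallopregnanolone, testosterone and 5α-dihydrotestosterone in culture medium were extracted, purified and quantified by GC/MS.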
# CB1 receptor = CB1 receptor (Mus musculus, UniProt P47746); assay: Object recognition task, THC-induced amnesia; format: in vivo, mice; set-up: tissue Charles River Laboratories (France) (animals); host or cells: living mice, whole animal
# Chain of CB1 receptor (P47746 whole entry): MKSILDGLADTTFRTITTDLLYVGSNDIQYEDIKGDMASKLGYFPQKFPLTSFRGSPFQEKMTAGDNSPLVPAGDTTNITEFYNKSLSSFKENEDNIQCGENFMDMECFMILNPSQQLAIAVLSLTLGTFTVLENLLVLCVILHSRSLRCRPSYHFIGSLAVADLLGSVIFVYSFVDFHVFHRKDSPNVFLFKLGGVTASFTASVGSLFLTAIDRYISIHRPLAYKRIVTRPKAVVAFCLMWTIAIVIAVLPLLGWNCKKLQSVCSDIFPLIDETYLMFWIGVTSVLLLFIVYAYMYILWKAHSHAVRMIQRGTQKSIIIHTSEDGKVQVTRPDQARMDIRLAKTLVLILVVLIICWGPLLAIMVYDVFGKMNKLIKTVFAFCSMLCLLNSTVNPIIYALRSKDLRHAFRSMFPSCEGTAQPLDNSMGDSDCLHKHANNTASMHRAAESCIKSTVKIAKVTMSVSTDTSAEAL
# Method: Object recognition was measured in a two arms L-maze (size of each arm 30 cm length×4.5 cm width) in dim light condition (50-60 lux). Animals were individually tested for three consecutive days for 9 min-session each day, corresponding to habituation, training and test sessions. On day 1 (habituation session), mice were let explore the L maze with no object. On the second day (training session), two identical objects were presented at the end of the each arm of the maze. Although no preferences for arm of object appeared (data not shown) object and arms were randomized for each mouse/condition. On the 3rd day (test session), one of the familiar objects was replaced with a novel object and the total time spent exploring each of the two objects (novel and familiar) was computed. The time spent in each arm and the time spent exploring an object (familiar or novel) were recorded. Object exploration was defined as the orientation of the nose to the object at a distance of less than 2 cm. During the test session, a discrimination index was calculated as the difference between the times spent exploring either the novel or familiar object divided by the total time exploring the two objects. […]
# In this example the inventors further analyzed the ability of pregnenolone to inhibit the effects of CB1 activation. […]
# [1] = culture medium of treated CHO cells, 0 = concentrations below the detection limit
# [2] = culture medium, pregnenolone 1 μM, 48 hours
structure (smiles),measurement,setting,value
"CC(=O)[C@H]1CC[C@H]2[C@@H]3CC=C4C[C@@H](O)CC[C@]4(C)[C@H]3CC[C@]12C [Pregnenolone, 5-Pregnen-3β-ol-20-one]",DHEA,CHO cells; [1],0.00 pg/mL
same,TESTO,CHO cells; [1],0.00 pg/mL
same,ALLO steroid levels,CHO cells; [2],3529.99 pg/mL
same,EPIALLO steroid levels,CHO cells; [2],16963.84 pg/mL
same,PREG steroid levels,CHO cells; [2],11440.66 pg/mL
same,THDOC steroid levels,CHO cells; [2],77.47 pg/mL
same,effect on memory retention in the absence of THC,CB1 receptor; pregnenolone 6 mg/kg,did not induce any change in memory retention
same,effect on amnesic effect of THC,"CB1 receptor; pregnenolone 6 mg/kg immediately after training, THC 10 mg/kg",strongly blunted the amnesic effect
